Results from patent US20230032283A1, “Topical Compositions For Treating Skin Ailments” (priority 2021, published 2023).

Test system: skin conditions (boil, folliculitis, ingrown hair)
Assay: Empirical studies of active ingredients in topical compositions
Assay type: in vivo, human

| Molecule | relieving pain of papule-like boil or ingrown hair conditions (1% by weight in composition) | treating contemplated skin conditions (antibiotic ingredients blended into compositions) |
| --- | --- | --- |
| CCCCOc1ccc(OCCCN2CCOCC2)cc1 [Pramoxine] | effective |  |
| bacitracin zinc |  | effective |
